Data: patent US10085955B2, “Methods and compositions for treatment of demyelinating diseases” (Pathologica LLC, priority 2013, dated 2018)
Read-outs that look alike come from different tables or passages of the source.

Experiments:
[1] = Rhesus macaque single-dose pharmacokinetics; format: in vivo, rhesus monkeys; settings: plasma, mean
Method: (§1) Two groups of three male rhesus monkeys were fasted overnight before being administered the test article, MGBG, as either a single bolus intravenous dose of 1 mg/kg (Group 1) or as a single oral gavage dose of 10 mg/kg (Group 2). Dose formulation analysis verified administered dose solutions as within 14% of targeted concentrations of 1 and 10 mg/kg for Groups 1 and 2, respectively.
Blood samples were collected into tubes containing lithium heparin from the femoral vein/artery (approximately 1.0 mL) for plasma MGBG concentration measurement from all intravenously dosed animals prior to dosing and at approximately T=0.083 (5 min), 0.25 (15 min), 0.5 (30 min), 1, 2, 4, 8, and 24 hours after dosing. Blood samples for plasma MGBG concentration measurement were collected from all orally dosed animals prior to dosing at approximately T=1, 2, 4, 8, 12, 24, and 36 hours after dosing. Food was also withheld through the first four hours of blood sample collection.
The samples were centrifuged under refrigerated conditions following completion of sample collection at each interval. The resulting plasma was separated and stored frozen at approximately −70° C. until analysis.
PK analysis was performed on the individual plasma concentration-time profiles for MGBG using the WinNonlin non-compartmental approach (linear trapezoidal rule for AUC calculations). Nominal dose values and sampling times were used for calculations. All MGBG plasma concentration measurements reported as BQL (<2.51 ng/mL) were set equal to zero for the purpose of analysis. Following IV and PO administration of MGBG, plasma PK disposition parameters were calculated using the WinNonlin default selection criteria for the selection of the Lambda Z.
Consequently, a model-dependent two-compartmental analysis was used to calculate bioavailability.

[2] = system: collagen-induced arthritis (CIA) model; test: Murine collagen-induced arthritis; format: in vivo, DBA/1 mice; settings: mice, 25 mg/kg PO BID
Source text: The collagen-induced arthritis (CIA) model is considered a suitable model for studying potential drugs active in human arthritis because of the many immunological and pathological similarities to human rheumatoid arthritis (RA), the involvement of localized major histocompatibility, […] class-II-restricted T helper lymphocyte activation, and the similarity of histological lesions. See, e.g., Rosloniec E F et al., “Collagen-Induced Arthritis,” Current Protocols in Immunology, Unit 15.5 (1993). See also the model using a monoclonal antibody to CD18 and VLA-4 integrins described in Issekutz, A. C. et al., Immunology (1996) 88:569. […]
Data. […] Edema is measured on days 18-20, 22-27, and 29-34. Inflammation is assessed by infiltration of inflammatory cells and edema. Post-euthanasia, terminal blood draws are collected, heparinized, and frozen at −70° C. until analyzed for cytokines such as osteopontin, TNFalpha, IL-1, CRP, MCP1, MIP-lbeta, RANTES, IFNgamma, TGFbeta, IP-10, IL-17, and MMP9. […] Bone resorption is quantified by presence of osteoclasts, defects in or loss of medullary trabecular or cortical bone. Cartilage damage is assessed by examining the severity and spread of chondrocyte loss and collagen disruption. […]
Statistical Analysis. Clinical data for paw scores (means for animal) are analyzed by determining the area under the dosing curve (AUC) for days 1-15. […]

[3] = parameters: species or system beagle dogs; settings: male, beagle, dog, in vivo
Method: as §1, with “beagle dogs weighing 9.0-10.7 kg and aged 8-30 months” for “rhesus monkeys”, “17%” for “14%”
Blood samples (approximately 2.0 mL) were collected for plasma MGBG concentration measurement from all intravenously dosed animals prior to dosing and at approximately T=0.083 (5 min), 0.25 (15 min), 0.5 (30 min), 1, 2, 4, 8, and 24 hours after dosing. A similar procedure was used with orally dosed animals was used, except that collection took place at T=1, 2, 4, 8, 12, 24, and 36 hours after dosing. The samples were centrifuged under refrigerated conditions following completion of sample collection at each interval. The resulting plasma was separated and stored frozen at approximately −70° C. until analysis.

[4] = oral gavage 10 mg/kg single dose

Work on `CC(/C=N/NC(=N)N)=N\NC(=N)N` [MGBG, 1,1′ [methylethanediylidene]dinitrilodiguanidine] yielded a Clobs ([1]; IV 1 mg/kg single bolus) of 13.7 mL/min/kg, a VSSobs ([1]; IV 1 mg/kg single bolus) of 13.2 L/kg and a Clobs [1, 4] of 6.63 mL/min/kg. The Vd [1, 4] was 13.2 L/kg, the “early phase of paw swelling/inflammation” value [2] was “did affect the early phase of paw swelling/inflammation” and the “efficacy as a disease-modifying anti-rheumatic drug (DMARD)” value [2] was “not efficacious”. For the same compound, the Clobs ([3]; iv, 1 mg/kg) was 13.7 mL/min/kg, the VSSobs ([3]; iv, 1 mg/kg) was 14.6 L/kg and the Clobs ([3]; po, 10 mg/kg) was 8.29 mL/min/kg. The Vd ([3]; po, 10 mg/kg) was 14.6 L/kg.
